From ChEMBL document CHEMBL3603819, “Targeting zoonotic viruses: Structure-based inhibition of the 3C-like protease from bat coronavirus HKU4--The likely reservoir host to the human coronavirus that causes Middle East Respiratory Syndrome (MERS)” (Bioorg Med Chem, 2015)

System: Tylonycteris bat coronavirus HKU4
Settings: at 100 µM

| SMILES | inhibition [%] |
| --- | --- |
| CC(=O)Nc1ccc(N(C(=O)Cn2nnc3ccccc32)C(C(=O)NC(C)(C)C)c2cccc(F)c2)cc1 (configuration not stated) | 71 |
| CC(C)(C)NC(=O)C(c1cccnc1)N(C(=O)c1ccco1)c1ccc(-c2ccc[nH]2)cc1 (configuration not stated) | 31 |
| CC(C)(C)NC(=O)C(c1cccnc1)N(C(=O)c1ccco1)c1ccc(C(C)(C)C)cc1 (configuration not stated) | 11 |
| CC(C)(C)NC(=O)C(c1cncnc1)N(C(=O)c1cnco1)c1ccc(C(C)(C)C)cc1 (configuration not stated) | 58 |
| CCC(=O)Nc1ccc(N(C(=O)Cn2nnc3ccccc32)C(C(=O)NC(C)(C)C)c2ccsc2)cc1 (configuration not stated) | 34 |
| CC(C)(C)NC(=O)C(c1cccnc1)N(C(=O)c1ccco1)c1ccc(-c2ccc(F)c(F)c2)cc1 (configuration not stated) | 12 |
| CC(C)c1ccc(N(C(=O)c2cccc3c2CCCC3)C(C(=O)NC(C)(C)C)c2cccnc2)cc1 (configuration not stated) | 25 |
| CC(C)(C)NC(=O)C(c1cccnc1)N(C(=O)c1ccco1)c1ccc(-c2ccccc2C#N)cc1 (configuration not stated) | 62 |
| CC(C)(C)NC(=O)C(c1ccsc1)N(C(=O)c1n[nH]c2ccccc12)c1ccc(C(C)(C)C)cc1 (configuration not stated) | 16 |
| CC(C)(C)NC(=O)C(c1cccnc1)N(C(=O)c1ccco1)c1ccc(-c2ccc(C#N)cc2)cc1 (configuration not stated) | 14 |
| CC(C)(C)NC(=O)C(c1cccnc1)N(C(=O)c1ccc(C#N)cc1)c1ccc(C(C)(C)C)cc1 (configuration not stated) | 11 |
| O=C(Nc1ccc(N(Cc2ccsc2)C(=O)Cn2nnc3ccccc32)cc1)C1CCC1 | 94 |
| CC(=O)Nc1ccc(N(C(=O)Cn2nnc3ccccc32)C(C(=O)NCc2ccccc2)c2cccc(F)c2)cc1 (configuration not stated) | 32 |
| CC(C)(C)NC(=O)C(c1cccnc1)N(C(=O)Cc1ccccc1)c1ccc(C(C)(C)C)cc1 (configuration not stated) | 20 |
| CC(C)(C)NC(=O)C(c1cccnc1)N(C(=O)c1c[nH]cn1)c1ccc(C(C)(C)C)cc1 (racemic) | 94 |
| COc1ncc(-c2ccc(N(Cc3ccsc3)C(=O)Cn3nnc4ccccc43)cc2)cn1 | 83 |
| CC(C)C(=O)Nc1ccc(N(Cc2ccsc2)C(=O)Cn2nnc3ccccc32)cc1 | 92 |
| CC(C)(C)NC(=O)C(c1cccnc1)N(C(=O)c1ccc(F)cc1)c1ccc(C(C)(C)C)cc1 (configuration not stated) | 21 |
| CC(C)(C)NC(=O)C(c1cccnc1)N(C(=O)c1ncc[nH]1)c1ccc(C(C)(C)C)cc1 (configuration not stated) | 22 |
| CC(C)(C)NC(=O)C(c1cccnc1)N(C(=O)c1ccco1)c1ccc(/C=C/c2ccccc2)cc1 (configuration not stated) | 21 |
| CC(C)(C)NC(=O)C(c1ccsc1)N(C(=O)c1cccc2c1CCCC2)C1CC1 (configuration not stated) | 14 |
| CC(C)(C)NC(=O)C(c1ccccn1)N(C(=O)c1cccnc1)c1ccc(C(C)(C)C)cc1 (configuration not stated) | 12 |

| SMILES | inhibition [%] |
| --- | --- |
| CC(C)(C)NC(=O)C(c1cccnc1)N(C(=O)c1ccc(C(F)(F)F)cn1)c1ccc(F)cc1 (configuration not stated) | 29 |
| CCC(=O)Nc1ccc(N(Cc2ccsc2)C(=O)Cn2nnc3ccccc32)cc1 | 92 |
| O=C(Nc1ccc(N(C(=O)Cn2nnc3ccccc32)C(C(=O)NCc2ccccc2)c2cccc(F)c2)cc1)C1CC1 (configuration not stated) | 71 |
| CC(C)(C)NC(=O)[C@@H](c1cccnc1)N(C(=O)c1c[nH]cn1)c1ccc(C(C)(C)C)cc1 | 93 |
| COc1ncccc1-c1ccc(N(Cc2ccsc2)C(=O)Cn2nnc3ccccc32)cc1 | 90 |
| CC(C)(C)NC(=O)C(c1ccsc1)N(C(=O)Cc1c[nH]c2ccccc12)c1ccc(C(C)(C)C)cc1 (configuration not stated) | 31 |
| CC(C)(C)NC(=O)C(c1cccnc1)N(C(=O)c1ccco1)C1CC2CCC1C2 (configuration not stated) | 16 |
| CC(C)(C)NC(=O)C(c1ccsc1)N(C(=O)c1ccc(C#N)cc1)c1ccc(OCF)cc1 (configuration not stated) | 16 |
| CC(C)COC(=O)Nc1ccc(N(C(=O)Cn2nnc3ccccc32)C(C(=O)NC(C)(C)C)c2ccsc2)cc1 (configuration not stated) | 19 |
| CC(C)(C)NC(=O)C(c1ccsc1)N(C(=O)Cn1cnc2ccccc21)c1ccc(C(C)(C)C)cc1 (configuration not stated) | 15 |
| CC(C)(C)NC(=O)C(c1cccnc1)N(C(=O)c1cnccn1)c1ccc(C(C)(C)C)cc1 (configuration not stated) | 41 |
| CC(C)(C)NC(=O)C(c1ccsc1)N(C(=O)Cn1cnc2ccccc21)c1ccc(NS(C)(=O)=O)cc1 (configuration not stated) | 28 |
| COCC(=O)Nc1ccc(N(Cc2ccsc2)C(=O)Cn2nnc3ccccc32)cc1 | 91 |
| CC(C)(C)NC(=O)C(c1cccnc1)N(C(=O)c1ccncc1)c1ccc(C(C)(C)C)cc1 (configuration not stated) | 13 |
| CC(C)(C)NC(=O)C(c1cccnc1)N(C(=O)c1ccsc1)c1ccc(C(C)(C)C)cc1 (configuration not stated) | 16 |
| CC(=O)Nc1ccc(N(C(=O)Cn2ccnn2)C(C(=O)NC(C)(C)C)c2ccsc2)cc1 (configuration not stated) | 27 |
| CC(C)(C)NC(=O)C(c1cccnc1)N(C(=O)c1ccco1)c1ccc(NS(=O)(=O)c2ccccc2)cc1 (configuration not stated) | 16 |
| COCCC(=O)Nc1ccc(N(Cc2ccsc2)C(=O)Cn2nnc3ccccc32)cc1 | 94 |
| CC(C)(C)NC(=O)C(c1ccsc1)N(C(=O)c1ccco1)C1CC1 (configuration not stated) | 18 |
| CC(C)(C)NC(=O)C(c1cccnc1)N(C(=O)Cc1c[nH]c2ccccc12)c1ccc(OCF)cc1 (configuration not stated) | 52 |
| CC(C)(C)NC(=O)C(c1ccsc1)N(C(=O)Cn1nnc2ccccc21)c1ccc(NS(C)(=O)=O)cc1 (configuration not stated) | 27 |
| CC(C)c1ccc(N(C(=O)c2n[nH]c3ccccc23)C(C(=O)NC(C)(C)C)c2ccsc2)cc1 (configuration not stated) | 11 |

| SMILES | inhibition [%] |
| --- | --- |
| CC(C)c1ccc(N(C(=O)Cc2c[nH]c3ccccc23)C(C(=O)NC(C)(C)C)c2cccnc2)cc1 (configuration not stated) | 78 |
| CC(C)(C)NC(=O)C(c1ccsc1)N(C(=O)Cc1c[nH]c2ccccc12)c1ccc(F)cc1 (configuration not stated) | 22 |
| CC(C)c1ccc(N(C(=O)c2ccc(C#N)cc2)C(C(=O)NC(C)(C)C)c2ccsc2)cc1 (configuration not stated) | 21 |
| CCC(=O)Nc1ccc(N(C(=O)Cn2c(C)nc3ccccc32)C(C(=O)NC(C)(C)C)c2ccsc2)cc1 (configuration not stated) | 8 |
| O=C(Cn1nnc2ccccc21)N(Cc1ccsc1)c1ccc(-c2cccnc2)cc1 | 90 |
| CC(C)(C)NC(=O)C(c1cccc(F)c1)N(C(=O)Cn1nnc2ccccc21)C12CC3CC(CC(C3)C1)C2 (configuration not stated) | 14 |
| CC(C)(C)NC(=O)C(c1cc[nH]n1)N(C(=O)c1ccco1)c1ccc(C(C)(C)C)cc1 (configuration not stated) | 11 |
| CC(C)(C)NC(=O)C(c1cccnc1)N(C(=O)c1n[nH]c2ccccc12)c1ccc(OC(F)F)cc1 (configuration not stated) | 24 |
| CC(C)c1ccc(N(C(=O)Cc2cccc3ccccc23)C(C(=O)NC(C)(C)C)c2ccsc2)cc1 (configuration not stated) | 13 |
| CC(C)(C)NC(=O)C(c1cccnc1)N(C(=O)c1ccco1)C1CCCCC1 (configuration not stated) | 6 |
| CC(C)(C)NC(=O)C(c1ccsc1)N(C(=O)c1ccc(C(F)(F)F)cn1)c1ccc(F)cc1 (configuration not stated) | 19 |
| CC(C)C(=O)Nc1ccc(N(Cc2ccsc2)C(=O)Cn2ccnn2)cc1 | 63 |
| CC(C)(C)NC(=O)C(c1cccnc1)N(C(=O)Cc1cccnc1)C1CC1 (configuration not stated) | 48 |
| CC(C)(C)NC(=O)C(c1cccnc1)N(C(=O)Cc1cccnc1)c1ccc(F)cc1 (configuration not stated) | 47 |
| CCC(C)Oc1ccc(N(C(=O)c2ccco2)C(C(=O)NC(C)(C)C)c2cccnc2)cc1 (configuration not stated) | 20 |
| CC(C)(C)NC(=O)C(c1cccnc1)N(C(=O)c1ccco1)c1ccc(-c2cccc(F)c2F)cc1 (configuration not stated) | 18 |
| CC(C)(C)NC(=O)C(c1cccnc1)N(C(=O)c1n[nH]c2ccccc12)c1ccc(C(C)(C)C)cc1 (configuration not stated) | 23 |
| Cc1ccc(C(C(=O)NC(C)(C)C)N(C(=O)c2ccco2)c2ccc(C(C)(C)C)cc2)cn1 (configuration not stated) | 8 |
| CC(C)(C)NC(=O)C(c1cccnc1)N(C(=O)c1cccc2c1CCCC2)c1ccc(C(C)(C)C)cc1 (configuration not stated) | 21 |
| CC(C)(C)NC(=O)C(c1cccnc1)N(C(=O)c1cccc(O)c1)c1ccc(C(C)(C)C)cc1 (configuration not stated) | 10 |
| CC(C)(C)NC(=O)C(c1cccnc1)N(C(=O)c1ccco1)c1ccc(Oc2ccccc2)cc1 (configuration not stated) | 19 |
| CC(C)c1ccc(N(C(=O)c2cccc3c2CCCC3)C(C(=O)NC(C)(C)C)c2ccsc2)cc1 (configuration not stated) | 20 |

| SMILES | inhibition [%] |
| --- | --- |
| CC(C)(C)NC(=O)C(c1ccsc1)N(C(=O)c1ccc(C(F)(F)F)nc1)C1CC1 (configuration not stated) | 12 |
| Cc1nccn1CC(=O)N(c1ccc(NC(=O)C(C)C)cc1)C(C(=O)NC(C)(C)C)c1ccsc1 (configuration not stated) | 18 |
| CC(C)(C)NC(=O)C(c1cccnc1)N(C(=O)Cc1cccc2ccccc12)c1ccc(C(C)(C)C)cc1 (configuration not stated) | 26 |
| CC(C)(C)NC(=O)C(c1ccsc1)N(C(=O)c1ccco1)c1ccc(F)cc1 (configuration not stated) | 16 |
| CC(C)(C)NC(=O)C(c1ccsc1)N(C(=O)c1n[nH]c2ccccc12)C1CC1 (configuration not stated) | 21 |
| CC(=O)Nc1ccc(N(C(=O)Cn2cnc3ccccc32)C(C(=O)NC(C)(C)C)c2ccsc2)cc1 (configuration not stated) | 14 |
| CC(C)(C)NC(=O)C(c1cccnc1)N(C(=O)c1ccccc1O)c1ccc(C(C)(C)C)cc1 (configuration not stated) | 11 |
| CC(C)(C)NC(=O)C(c1ccsc1)N(C(=O)Cn1nnc2ccccc21)c1ccc(C(C)(C)C)cc1 (configuration not stated) | 9 |
| CC(C)(C)NC(=O)C(c1ccsc1)N(C(=O)c1cccc2c1CCCC2)c1ccc(OCF)cc1 (configuration not stated) | 15 |
| CC(C)c1ccc(N(C(=O)c2ccc(C(F)(F)F)nc2)C(C(=O)NC(C)(C)C)c2cccnc2)cc1 (configuration not stated) | 18 |
| CC(C)(C)NC(=O)C(c1cccnc1)N(C(=O)Cc1ccco1)C1CC1 (configuration not stated) | 43 |
| CC(C)(C)NC(=O)C(c1cccnc1)N(C(=O)c1cc[nH]n1)c1ccc(C(C)(C)C)cc1 (stereo in doubt; 124B) | 17 |
| COc1cccc(C(=O)N(c2ccc(C(C)(C)C)cc2)C(C(=O)NC(C)(C)C)c2cccnc2)c1 (configuration not stated) | 17 |
| CC(=O)Nc1ccc(N(C(=O)Cn2cc([Si](C)(C)C)nn2)C(C(=O)NC(C)(C)C)c2ccsc2)cc1 (configuration not stated) | 20 |
| CC(C)(C)NC(=O)C(c1cccnc1)N(C(=O)c1ccc[nH]1)c1ccc(C(C)(C)C)cc1 (configuration not stated) | 16 |
| CC(C)(C)NC(=O)C(c1cccnc1)N(C(=O)c1c[nH]c2ccccc12)C1CC1 (configuration not stated) | 49 |
| CC(C)(C)NC(=O)C(c1cn[nH]c1)N(C(=O)c1ccco1)c1ccc(C(C)(C)C)cc1 (configuration not stated) | 12 |
| Cc1nc2ccccc2n1CC(=O)N(c1ccc(N)cc1)C(C(=O)NC(C)(C)C)c1ccsc1 (configuration not stated) | 14 |
| CC(C)(C)NC(=O)C(c1ccsc1)N(C(=O)c1n[nH]c2ccccc12)c1ccc(OC(F)F)cc1 (configuration not stated) | 17 |
| CC(C)(C)NC(=O)C(c1cncnc1)N(C(=O)c1ccco1)c1ccc(C(C)(C)C)cc1 (configuration not stated) | 16 |
| CC(C)(C)NC(=O)C(c1ccsc1)N(C(=O)Cn1cnc2ccccc21)c1ccc(N)cc1 (configuration not stated) | 18 |
